In experiment [1] the target is T1, KinA/Spo0F (sporulation kinase A/sporulation initiation phosphotransferase F) (Bacillus subtilis (strain 168), UniProt P06628+P16497).
T1 sequence (P06628 whole entry): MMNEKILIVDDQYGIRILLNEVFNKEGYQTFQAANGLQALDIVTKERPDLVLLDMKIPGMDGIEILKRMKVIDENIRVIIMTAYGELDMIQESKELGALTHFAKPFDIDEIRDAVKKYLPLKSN
T1 sequence (P16497 whole entry): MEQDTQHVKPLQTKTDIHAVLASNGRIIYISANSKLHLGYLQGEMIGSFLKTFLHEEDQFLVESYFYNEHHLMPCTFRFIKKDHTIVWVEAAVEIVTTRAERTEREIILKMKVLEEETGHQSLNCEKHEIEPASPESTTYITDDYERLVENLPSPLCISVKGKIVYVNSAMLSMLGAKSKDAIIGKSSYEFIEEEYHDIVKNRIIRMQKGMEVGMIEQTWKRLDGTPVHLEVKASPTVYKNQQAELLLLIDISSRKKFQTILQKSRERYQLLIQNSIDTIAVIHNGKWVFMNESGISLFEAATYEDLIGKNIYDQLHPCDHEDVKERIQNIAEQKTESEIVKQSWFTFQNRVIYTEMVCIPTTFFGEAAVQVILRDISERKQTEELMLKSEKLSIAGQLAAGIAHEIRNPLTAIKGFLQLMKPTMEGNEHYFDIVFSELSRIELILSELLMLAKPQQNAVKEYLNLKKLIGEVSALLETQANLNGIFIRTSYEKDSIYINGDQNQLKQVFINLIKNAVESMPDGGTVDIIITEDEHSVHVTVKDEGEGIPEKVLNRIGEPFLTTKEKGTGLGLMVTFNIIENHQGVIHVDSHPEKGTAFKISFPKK
Put plainly: Inhibition of KinA/Sp0F system two component (TCS) from Bacillus subtilis. The experiment is classed as protein assay.

Another experiment has as its system Enterococcus faecalis. Briefly: Inhibition of growth of Enterococcus faecalis OC 3041. The experiment is classed as functional.
Experiment [2] deals with Staphylococcus aureus. Briefly: Inhibition of growth of Staphylococcus aureus ATCC 29213. It counts as functional.
Experiment [3] concerns Staphylococcus aureus. Briefly: Inhibition of growth of methicillin resistant Staphylococcus aureus MRSA OC 2089. It counts as functional.
For a further experiment, the system named is Enterococcus faecium. Briefly: Inhibition of growth of Vancomycin resistant Enterococcus faecium (VRE) OC 3312.
The target of experiment [4] is T1, KinA/Spo0F (sporulation kinase A/sporulation initiation phosphotransferase F). Briefly: Inhibition of KinA/Sp0F system two component system (TCS) from Bacillus subtilis. It counts as protein assay.
The subject of experiment [5] is Staphylococcus aureus. Put plainly: Compound was evaluated for inhibition of growth of Staphylococcus aureus ATCC 29213. It counts as functional.
Experiment [6] has as its system Staphylococcus aureus. Briefly: Compound was evaluated for inhibition of growth of methicillin resistant Staphylococcus aureus MRSA OC 2089. It counts as functional.

Structures are written as SMILES. Values after ≈ are worked out from the molar mass of the structure shown. Some results are limits rather than exact numbers.

For 21 molecules, IC50 and MIC results are on record in ChEMBL document CHEMBL1134093, “Amidino benzimidazole inhibitors of bacterial two-component systems” (Bioorg Med Chem Lett, 2001).

As a reminder, the IC50 is the concentration that inhibits the measured activity by half. Low readings indicate greater potency in that assay, high ones weaker potency in that assay. The molecule `N=C(N)c1ccc2nc(-c3ccc(-c4ccccc4)cc3)[nH]c2c1` displayed an IC50 in experiment [1] of 88 µM.

The MIC is the least concentration at which growth counts as inhibited. A lower MIC goes with a more susceptible organism. Turning to `CC(C)(C)c1cccc(-c2nc3cc(C(=N)N)ccc3[nH]2)c1O`, the MIC against Enterococcus faecalis turned out to be 2 µg/mL (≈ 6.49 µM); against Staphylococcus aureus [2] it was 1 µg/mL (≈ 3.24 µM); in the experiment with Staphylococcus aureus [3], 1 µg/mL (≈ 3.24 µM); with Enterococcus faecium it was 2 µg/mL (≈ 6.49 µM). The same molecule displayed a half-inhibitory concentration (IC50) in experiment [1] of 6 µM.

Consider `N=C(N)c1ccc(Oc2ccc(-c3cc4ccc(C(=N)N)cc4[nH]3)cc2)cc1`, for which the MIC in the experiment with Enterococcus faecalis was 1 µg/mL (≈ 2.71 µM); against Staphylococcus aureus [2], 1 µg/mL (≈ 2.71 µM); in the experiment with Staphylococcus aureus [3], 0.5 µg/mL (≈ 1.35 µM); against Enterococcus faecium it was 0.5 µg/mL (≈ 1.35 µM). In experiment [4], this molecule came in with an IC50 of 31 µM.

`CC(C)(N)CNC(=O)c1ccc2[nH]c(-c3cc(C(C)(C)C)cc(C(C)(C)C)c3O)nc2c1` had an IC50 in experiment [1] of 10 µM. This counts as double-digit micromolar.

As for `N=C(N)c1ccc2oc(-c3ccc(Oc4ccccc4)cc3)nc2c1`, the IC50 in experiment [1] was 138 µM. Compared with the last molecule, the IC50 is about 14-fold higher.

`N=C(N)c1ccc2nc(-c3ccc(Oc4ccccc4)cc3)oc2c1` yielded an IC50 in experiment [1] of 49 µM.

Take `CC(C)(C)c1cc(-c2nc3cc(C4=NCCN4)ccc3[nH]2)c(O)c(C(C)(C)C)c1`: the MIC with Enterococcus faecalis, against Staphylococcus aureus [2], against Staphylococcus aureus [3] and in the experiment with Enterococcus faecium was 1 µg/mL (≈ 2.56 µM) each time. This molecule showed an IC50 in experiment [1] of 10 µM.

With `CC(C)(C)c1cc(-c2nc3ccc(C(=N)N)cc3o2)c(O)c(C(C)(C)C)c1`, the minimal inhibitory concentration (MIC) is 2 µg/mL (≈ 5.47 µM) in the experiment on Enterococcus faecalis, 2 µg/mL (≈ 5.47 µM) against Staphylococcus aureus [2], 2 µg/mL (≈ 5.47 µM) in the experiment with Staphylococcus aureus [3] and 1 µg/mL (≈ 2.74 µM) with Enterococcus faecium. The molecule further showed an IC50 in experiment [1] of 15.4 µM.

`CC(C)(C)c1cc(-c2nc3cc(C(=N)N)ccc3o2)c(O)c(C(C)(C)C)c1`: the MIC against Enterococcus faecalis, in the experiment with Staphylococcus aureus [2], against Staphylococcus aureus [3] and against Enterococcus faecium was 1 µg/mL (≈ 2.74 µM) throughout. The molecule further came in with an IC50 in experiment [1] of 14 µM.

For `Cn1c(-c2ccc(Oc3ccccc3)cc2)nc2cc(C(=N)N)ccc21`, the MIC in the experiment on Enterococcus faecalis was more than 64 µg/mL; in the experiment on Staphylococcus aureus [2] it was 16 µg/mL (≈ 46.7 µM); against Staphylococcus aureus [3], 32 µg/mL (≈ 93.5 µM); in the experiment on Enterococcus faecium, 32 µg/mL (≈ 93.5 µM). In experiment [1], this molecule showed an IC50 of 44 µM.

`CC(C)(C)c1cc(-c2nc3cc(C(=N)N)ccc3[nH]2)cc(C(C)(C)C)c1`: the MIC is 4 µg/mL (≈ 11.5 µM) in the experiment with Enterococcus faecalis, 2 µg/mL (≈ 5.74 µM) in the experiment with Staphylococcus aureus [2], 4 µg/mL (≈ 11.5 µM) in the experiment with Staphylococcus aureus [3] and 4 µg/mL (≈ 11.5 µM) with Enterococcus faecium. Moreover, the IC50 in experiment [1] worked out at 25 µM.

`CC(C)(C)c1cccc(-c2nc3cc(C(=N)N)ccc3[nH]2)c1`: the IC50 in experiment [1] was 163 µM.

On to `COC(=O)c1ccc2[nH]c(-c3cc(C(C)(C)C)cc(C(C)(C)C)c3O)nc2c1`, for which, in experiment [1], the IC50 came to 380 µM. This IC50 is about 2.3-fold higher than that of the molecule before.

For the molecule `N=C(N)c1ccc2nc(-c3ccc(Oc4ccccc4)cc3)[nH]c2c1`, the MIC with Enterococcus faecalis is 16 µg/mL (≈ 48.7 µM); in the experiment on Staphylococcus aureus [5] it was 8 µg/mL (≈ 24.4 µM); with Staphylococcus aureus [6] it was 16 µg/mL (≈ 48.7 µM); in the experiment on Enterococcus faecium, 16 µg/mL (≈ 48.7 µM).

On to `CC(C)(C)c1cc(-c2nc3cc(C(=N)N)ccc3[nH]2)c(O)c(C(C)(C)C)c1`, for which the MIC with Enterococcus faecalis turned out to be 2 µg/mL (≈ 5.49 µM); against Staphylococcus aureus [2], 1 µg/mL (≈ 2.74 µM); with Staphylococcus aureus [3] it was 2 µg/mL (≈ 5.49 µM); against Enterococcus faecium, 1 µg/mL (≈ 2.74 µM). This molecule also had an IC50 in experiment [1] of 12 µM.

On to `CC(C)(C)c1ccc(O)c(-c2nc3cc(C(=N)N)ccc3[nH]2)c1`, for which the MIC with Enterococcus faecalis was 16 µg/mL (≈ 51.9 µM); in the experiment on Staphylococcus aureus [2], 8 µg/mL (≈ 25.9 µM); with Staphylococcus aureus [3], 8 µg/mL (≈ 25.9 µM); against Enterococcus faecium, 16 µg/mL (≈ 51.9 µM).

For the molecule `N=C(N)c1ccc2cc(-c3ccc(Oc4ccccc4)cc3)[nH]c2c1`, the MIC with Enterococcus faecalis, against Staphylococcus aureus [2], in the experiment on Staphylococcus aureus [3] and with Enterococcus faecium was 4 µg/mL (≈ 12.2 µM) each time. In experiment [1], this molecule came in with an IC50 of 7.7 µM.

Take `COc1c(-c2nc3cc(C(=N)N)ccc3[nH]2)cc(C(C)(C)C)cc1C(C)(C)C`: the MIC came to 8 µg/mL (≈ 21.1 µM) with Enterococcus faecalis, 4 µg/mL (≈ 10.6 µM) with Staphylococcus aureus [2], 4 µg/mL (≈ 10.6 µM) against Staphylococcus aureus [3] and 4 µg/mL (≈ 10.6 µM) in the experiment with Enterococcus faecium.

Regarding `N=C(N)c1ccc2[nH]c(-c3ccc(N(c4ccccc4)c4ccccc4)cc3)nc2c1`, the MIC worked out at 4 µg/mL (≈ 9.91 µM) in the experiment on Enterococcus faecalis, 4 µg/mL (≈ 9.91 µM) in the experiment with Staphylococcus aureus [2], 16 µg/mL (≈ 39.7 µM) against Staphylococcus aureus [3] and 4 µg/mL (≈ 9.91 µM) against Enterococcus faecium. In experiment [1], the IC50 turned out to be 17 µM.

For `N=C(N)c1ccc2[nH]c(-c3ccccc3)nc2c1`, the IC50 in experiment [1] was more than 500 µM.

Consider `Cc1onc(-c2ccccc2)c1C(=O)N[C@@H]1C(=O)N2[C@@H]1SC(C)(C)[C@@H]2C(=O)O` [OXACILLIN], for which the MIC with Enterococcus faecalis was 16 µg/mL (≈ 39.9 µM); against Staphylococcus aureus [2], 0.25 µg/mL (≈ 0.623 µM); against Staphylococcus aureus [3], more than 64 µg/mL; in the experiment with Enterococcus faecium, more than 64 µg/mL.
